# Assay results reported in patent US6410575B1, “Viral treatment” (The Procter & Gamble Company, priority 1999, dated 2002).
# Legend:
# HIV-1 cell line, CEMSKI = assay: Long term in vitro study, CEMSKI; type: cell-based
# Protocol: Toxicity quantification involves the XTT-based evaluation. Assays were designed to characterize the long term effects of the compounds on virus production and to characterize the longer term effects of the compounds on virus production from chronically HIV infected cells.
# CEM-SS cells chronically infected with HIV isolate, for example SKI (CEM-SKI) are cultured in RPMI1640 tissue culture medium supplemented with 10% fetal bovine serum and antibiotics. […] CEM-SKI or other infected cells with no added drug are used as the control cells.
# Cells are allowed to grow to a density of approximately 1×10^6 cells/ml and are then passaged at a 1:10 dilution. […] The drug concentration in the flask is then increased two-fold and the cells maintained as above.
# The cell populations contain integrated copies of the HIV genome and constitutively produce HIV at relatively high levels or are latently infected and only produce virus after stimulation with phorbol esters, tumor necrosis factor or IL6(U1 and ACH2). Reductions in virus products were observed when quantifying supernatant reverse transcriptase activity.
# The results with CEMSKI cells was reported at weekly intervals.
# The CEMSKI cell like is a viral strain of the CEMSS cell line.
# HIV-1 protease = target: T1, HIV-1 protease (Human immunodeficiency virus type 1 group M subtype B, UniProt P04585); assay: Protease inhibition assay (fluorometric); type: biochemical
# T1 construct: use of the fluorometric, HIV-1 protease assay; purchased Bachem
# Protocol: Protease inhibition is evaluated using a fluorometric method. Enzyme (Bachem) is diluted to 116 μgm/ml in 50 mM NaOAC, 5 mM DTT, 2 mM EDTA, 10% glycerol (pH 5.0) and stored as 10 μl samples at −20° C. HIV protease substrates 1 (Molecular Probes) are diluted to a working concentration of 0.32 nmoles/μl. Enzyme (20 μl) and drug (20 μl) are added to each well of a microtiter plate as appropriate. Positive and negative controls are evaluated in parallel. Fluorescene is quantitated on Labsystems Fluroskan II using 355 nm/460 nm at 37° C. at time zero and at 30 minute intervals for 2 hours. In instances where auto-fluorescence precludes use of the fluorometric, HIV-1 protease assay or confirmation of a result is required, an HPLC based protease assay can be employed.
# The mechanism of action of the (5-aryl-1,2,4-thiadiazol)-3-yl thiourea derivatives or (5-aryl-1,2,4-thiadizol)-3-yl urea derivatives is not known.
compound,measurement,setting,value
NC(=S)Nc1nsc(-c2ccccc2)n1,virus production (supernatant reverse transcriptase activity),"HIV-1 cell line, CEMSKI; 7 μg/ml, day 4",6593
same,virus production (supernatant reverse transcriptase activity),"HIV-1 cell line, CEMSKI; 7 μg/ml, day 11",8676
same,virus production (supernatant reverse transcriptase activity),"HIV-1 cell line, CEMSKI; 7 μg/ml, day 18",10912
same,virus production (supernatant reverse transcriptase activity),"HIV-1 cell line, CEMSKI; 7 μg/ml, day 25",9356
same,virus production (supernatant reverse transcriptase activity),"HIV-1 cell line, CEMSKI; 7 μg/ml, day 32",8803
same,virus production (supernatant reverse transcriptase activity),"HIV-1 cell line, CEMSKI; 7 μg/ml, day 39",6655
same,virus production (supernatant reverse transcriptase activity),"HIV-1 cell line, CEMSKI; 7 μg/ml, day 46",8280
same,virus production (supernatant reverse transcriptase activity),"HIV-1 cell line, CEMSKI; 7 μg/ml, day 53",7549
same,virus production (supernatant reverse transcriptase activity),"HIV-1 cell line, CEMSKI; 15 μg/ml, day 4",6815
same,virus production (supernatant reverse transcriptase activity),"HIV-1 cell line, CEMSKI; 15 μg/ml, day 11",8202
same,virus production (supernatant reverse transcriptase activity),"HIV-1 cell line, CEMSKI; 15 μg/ml, day 18",10389
same,virus production (supernatant reverse transcriptase activity),"HIV-1 cell line, CEMSKI; 15 μg/ml, day 25",7816
same,virus production (supernatant reverse transcriptase activity),"HIV-1 cell line, CEMSKI; 15 μg/ml, day 32",6672
same,virus production (supernatant reverse transcriptase activity),"HIV-1 cell line, CEMSKI; 15 μg/ml, day 39",7087
same,virus production (supernatant reverse transcriptase activity),"HIV-1 cell line, CEMSKI; 15 μg/ml, day 46",6457
same,virus production (supernatant reverse transcriptase activity),"HIV-1 cell line, CEMSKI; 15 μg/ml, day 53",6544
same,virus production (supernatant reverse transcriptase activity),"HIV-1 cell line, CEMSKI; 30 μg/ml, day 4",6626
same,virus production (supernatant reverse transcriptase activity),"HIV-1 cell line, CEMSKI; 30 μg/ml, day 11",6582
same,virus production (supernatant reverse transcriptase activity),"HIV-1 cell line, CEMSKI; 30 μg/ml, day 18",7494
same,virus production (supernatant reverse transcriptase activity),"HIV-1 cell line, CEMSKI; 30 μg/ml, day 25",4421
same,virus production (supernatant reverse transcriptase activity),"HIV-1 cell line, CEMSKI; 30 μg/ml, day 32",4056
same,virus production (supernatant reverse transcriptase activity),"HIV-1 cell line, CEMSKI; 30 μg/ml, day 39",2118
same,virus production (supernatant reverse transcriptase activity),"HIV-1 cell line, CEMSKI; 30 μg/ml, day 46",4117
same,virus production (supernatant reverse transcriptase activity),"HIV-1 cell line, CEMSKI; 30 μg/ml, day 53",4779
same,virus production (supernatant reverse transcriptase activity),"HIV-1 cell line, CEMSKI; repeated test, 7 μg/ml, day 4",6224
same,virus production (supernatant reverse transcriptase activity),"HIV-1 cell line, CEMSKI; repeated test, 7 μg/ml, day 11",6658
same,virus production (supernatant reverse transcriptase activity),"HIV-1 cell line, CEMSKI; repeated test, 7 μg/ml, day 18",7207
same,virus production (supernatant reverse transcriptase activity),"HIV-1 cell line, CEMSKI; repeated test, 7 μg/ml, day 25",5725
same,virus production (supernatant reverse transcriptase activity),"HIV-1 cell line, CEMSKI; repeated test, 7 μg/ml, day 32",3161
same,virus production (supernatant reverse transcriptase activity),"HIV-1 cell line, CEMSKI; repeated test, 7 μg/ml, day 39",9602
same,virus production (supernatant reverse transcriptase activity),"HIV-1 cell line, CEMSKI; repeated test, 7 μg/ml, day 46",13984
same,virus production (supernatant reverse transcriptase activity),"HIV-1 cell line, CEMSKI; repeated test, 7 μg/ml, day 53",11578
same,virus production (supernatant reverse transcriptase activity),"HIV-1 cell line, CEMSKI; repeated test, 15 μg/ml, day 4",5685
same,virus production (supernatant reverse transcriptase activity),"HIV-1 cell line, CEMSKI; repeated test, 15 μg/ml, day 11",5733
same,virus production (supernatant reverse transcriptase activity),"HIV-1 cell line, CEMSKI; repeated test, 15 μg/ml, day 18",6236
same,virus production (supernatant reverse transcriptase activity),"HIV-1 cell line, CEMSKI; repeated test, 15 μg/ml, day 25",3752
same,virus production (supernatant reverse transcriptase activity),"HIV-1 cell line, CEMSKI; repeated test, 15 μg/ml, day 32",2451
same,virus production (supernatant reverse transcriptase activity),"HIV-1 cell line, CEMSKI; repeated test, 15 μg/ml, day 39",5526
same,virus production (supernatant reverse transcriptase activity),"HIV-1 cell line, CEMSKI; repeated test, 15 μg/ml, day 46",12397
same,virus production (supernatant reverse transcriptase activity),"HIV-1 cell line, CEMSKI; repeated test, 15 μg/ml, day 53",9662
same,virus production (supernatant reverse transcriptase activity),"HIV-1 cell line, CEMSKI; repeated test, 30 μg/ml, day 4",4789
same,virus production (supernatant reverse transcriptase activity),"HIV-1 cell line, CEMSKI; repeated test, 30 μg/ml, day 11",5200
same,virus production (supernatant reverse transcriptase activity),"HIV-1 cell line, CEMSKI; repeated test, 30 μg/ml, day 18",4821
same,virus production (supernatant reverse transcriptase activity),"HIV-1 cell line, CEMSKI; repeated test, 30 μg/ml, day 25",2418
same,virus production (supernatant reverse transcriptase activity),"HIV-1 cell line, CEMSKI; repeated test, 30 μg/ml, day 32",1651
same,virus production (supernatant reverse transcriptase activity),"HIV-1 cell line, CEMSKI; repeated test, 30 μg/ml, day 39",3386
same,virus production (supernatant reverse transcriptase activity),"HIV-1 cell line, CEMSKI; repeated test, 30 μg/ml, day 46",9353
same,virus production (supernatant reverse transcriptase activity),"HIV-1 cell line, CEMSKI; repeated test, 30 μg/ml, day 53",6466
same,EC50,HIV-1 protease,> 423 µM
same,activity as a protease inhibitor,HIV-1 protease,did not show activity
same,remaining activity at 0.001 µM,"HIV-1 protease; 1 nM, read-out: Protease inhibition, % no drug control",100%
same,remaining activity at 0.01 µM,"HIV-1 protease; 10 nM, read-out: Protease inhibition, % no drug control",103%
same,remaining activity at 0.1 µM,"HIV-1 protease; 100 nM, read-out: Protease inhibition, % no drug control",99.9%
same,remaining activity at 1 µM,"HIV-1 protease; read-out: Protease inhibition, % no drug control",88%
